Measurements published in US20170020909A1, “METHODS OF TREATING GLAUCOMA USING AMP-ACTIVATED PROTEIN KINASE (AMPK) ACTIVATORS” (Massachusetts Eye and Ear Infirmary, priority 2014, published 2017).

Test system: Acetyl-CoA carboxylase (ACC)
Assay: Time course immunoblot of p-ACC/total ACC in primary human TM cell lysates
Format: cell-based
Settings: 0.5 mM AICAR, human TM cells
Description: Primary human trabecular meshwork (TM) cells were isolated, in accordance with the Declaration of Helsinki, and maintained in culture as described previously.^63 Independent primary human TM cell lines were generated from donors ranging in age from 35 to 72 years and no known history of ocular disease. Cell cultures were maintained, unless otherwise stated, in Dulbecco's modified eagle medium (Life Technologies, Grand Island, N.Y.) containing 20% fetal bovine serum, 1% L-glutamine (2 mM), and gentamicin (0.1 mg/ml) at 37° C. in a 10% CO2 atmosphere. Only TM cells from third through fifth passage were used. […]
At the conclusion of each experiment for matricellular and ECM protein detection, conditioned media (CM) from TM cell cultures was harvested and centrifuged at 5000 rpm for 10 minutes at 4° C. The supernatant was then concentrated (Amicon Ultra-4 Filter Unit, 10 kDa; Millipore, Milford, Mass.), and protein content quantified using the DC Protein Assay kit adhering to manufacturer's protocols (Bio-Rad, Hercules, Calif.). […] Samples were then centrifuged at 14,000 rpm for 15 minutes at 4° C. and protein content quantified. […] The membranes were then washed three times with 1×TBS-T, scanned, and integrated band intensities were calculated using an infrared imaging system (Odyssey; Li-Cor, Lincoln, Nebr.). […]

NC(=O)c1ncn([C@@H]2O[C@H](CO)[C@@H](O)[C@H]2O)c1N [AICAR, 5-Aminoimidazole-4-carboxamide riboside]
peak increase of phospho-total ACC ratio (at 6 hours): 6.6 fold | change of phospho-total ACC ratio (within 15 minutes): increased by a statistically significant degree
